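Briefly, cells in 96-well plates were exposed to five compound concentrations for 48 h, and endpoints were estimated by linear interpolation. Abbreviation: GI50, concentration required for 50% inhibition of growth.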 Active and inactive are the calls of the source. No stated cut-off is given here; in the data, active = GI50 up to about 1.1 µM and inactive = higher.
Experiments:
Assay in all cases: NCI anticancer screen, dose series, 48 h
[1] = system: 786-0
[2] = system: A498
[3] = system: DLD-1
[4] = system: HCT-116
[5] = system: HCT-15
[6] = system: HOP-62
[7] = system: IGROV-1
[8] = system: K562
[9] = system: NCI-H226
[10] = system: NCI-H460
[11] = system: OVCAR-3
[12] = system: OVCAR-5
[13] = system: SK-MEL-28
[14] = system: SK-MEL-2
[15] = system: SNB-19
[16] = system: UACC-257
[17] = system: MCF7
[18] = system: MDA-MB-435
[19] = system: MDA-N
[20] = system: NCI/ADR-RES

SMILES | GI50 [1] | GI50 [2] | GI50 [3] | GI50 [4] | GI50 [5] | GI50 [6] | GI50 [7] | GI50 [8] | GI50 [9] | GI50 [10] | GI50 [11] | GI50 [12] | GI50 [13] | GI50 [14] | GI50 [15] | GI50 [16] | GI50 [17] | GI50 [18] | GI50 [19] | GI50 [20]
O=c1/c(=C/c2cccc([N+](=O)[O-])c2)sc2nc3ccccc3n12 | > 100 µM (inactive) | > 100 µM (inactive) | > 100 µM (inactive) | 37.3 µM (inactive) | > 100 µM | > 100 µM (inactive) | > 10 µM (inactive) | > 100 µM (inactive) | > 100 µM (inactive) | > 100 µM (inactive) | > 10 µM (inactive) | > 100 µM (inactive) | 35.6 µM (inactive) | > 100 µM (inactive) | > 10 µM (inactive) | 4.71 µM (inactive) |  |  |  | 
C/C=C/C=C\C(=O)C1c2cccc(O)c2C(=O)c2c(O)cc(C)cc21 (configuration not stated) | 2.03 µM (inactive) | 2.74 µM (inactive) | 1.9 µM (inactive) | 1.52 µM (inactive) | 1.76 µM | 2.04 µM (inactive) | 1.57 µM (inactive) | 0.356 µM (active) | 1.11 µM (active) | 0.406 µM (active) | 1.02 µM (active) | 1.82 µM (inactive) | 1.69 µM (inactive) | 1.01 µM (active) | 0.442 µM (active) | 1.83 µM (inactive) |  |  |  | 
CC(C)(C)NNc1c([N+](=O)[O-])cnn(-c2ccccc2)c1=O | 6.24 µM (inactive) | 29.8 µM (inactive) | 4.56 µM (inactive) | 2.46 µM (inactive) | 3.95 µM | 8.63 µM (inactive) | 20.4 µM (inactive) | 0.942 µM (active) | 7.96 µM (inactive) | 7.36 µM (inactive) | 2.59 µM (inactive) | 8.81 µM (inactive) | 2.49 µM (inactive) | > 10 µM (inactive) | 11.2 µM (inactive) | 4.6 µM (inactive) | 2.92 µM (inactive) | 1.81 µM (inactive) |  | 
Cc1nc(-n2nc(-c3ccccc3)cc2-c2ccccc2)sc1C(=O)/C=C/c1ccc([N+](=O)[O-])cc1 | 13 µM (inactive) | > 43.8 µM (inactive) | 15.3 µM (inactive) | 12.7 µM (inactive) | 14 µM | 20.1 µM (inactive) | 20.5 µM (inactive) | 14.2 µM (inactive) | 57.8 µM (inactive) | 25.2 µM (inactive) | 10.4 µM (inactive) | > 59.4 µM (inactive) | 28.7 µM (inactive) | 43.1 µM (inactive) | 24.2 µM (inactive) | 34.5 µM (inactive) | 5.74 µM (inactive) | 16 µM (inactive) | 19.2 µM (inactive) | 17.2 µM (inactive)
COc1ccc(/N=N/c2c(-c3ccccc3)nn(C(=O)CC(=O)Nc3ccc(OC)cc3)c2-c2ccccc2)cc1 | 48.6 µM (inactive) | 33.2 µM (inactive) | > 100 µM (inactive) | 60 µM (inactive) | > 100 µM | 23.4 µM (inactive) | 39.9 µM (inactive) | 27 µM (inactive) | > 100 µM (inactive) | > 100 µM (inactive) | > 100 µM (inactive) | > 100 µM (inactive) | > 100 µM (inactive) | 88.3 µM (inactive) | 29.9 µM (inactive) | > 100 µM (inactive) |  |  |  | 
NC(=O)OCC(COc1ccc(Cl)cc1)OC(=O)c1ccccc1Cl (configuration not stated) | 19.4 µM (inactive) | > 100 µM (inactive) | 18.5 µM (inactive) | 17 µM (inactive) | 16.4 µM | 20.9 µM (inactive) | 25.5 µM (inactive) | 20.7 µM (inactive) | 25.1 µM (inactive) | 16.8 µM (inactive) | 20.3 µM (inactive) | 20.6 µM (inactive) | 18.6 µM (inactive) | 17.3 µM (inactive) | 28.1 µM (inactive) | 19 µM (inactive) |  |  |  | 
COC(=O)CCC(NC(=S)N/N=C/c1cccs1)C(=O)OC (configuration not stated) | > 100 µM (inactive) | > 100 µM (inactive) | > 100 µM (inactive) | > 100 µM (inactive) | > 100 µM | > 100 µM (inactive) | > 100 µM (inactive) | > 100 µM (inactive) | > 100 µM (inactive) | > 100 µM (inactive) | > 100 µM (inactive) | > 100 µM (inactive) | > 100 µM (inactive) | > 100 µM (inactive) | > 100 µM (inactive) | > 100 µM (inactive) |  |  |  | 
COCNC(=NC#N)NCOC | > 47.2 µM (inactive) | > 100 µM (inactive) | > 62.8 µM (inactive) | > 65.9 µM (inactive) | > 42.9 µM | > 100 µM (inactive) | > 100 µM (inactive) | > 64.6 µM (inactive) | > 100 µM (inactive) | > 100 µM (inactive) | > 100 µM (inactive) | > 100 µM (inactive) | > 100 µM (inactive) | > 100 µM (inactive) | > 100 µM (inactive) | > 100 µM (inactive) |  |  |  | 
O=P(NC12CC3CC(CC(C3)C1)C2)(N1CC1)N1CC1 | 23.2 µM (inactive) | 45.5 µM (inactive) | 80.5 µM (inactive) | 43.7 µM (inactive) | > 68.5 µM | 12.8 µM (inactive) | > 92.9 µM (inactive) | 37.6 µM (inactive) | 41.6 µM (inactive) | 2.46 µM (inactive) | > 86.1 µM (inactive) | > 100 µM (inactive) | > 100 µM (inactive) | > 100 µM (inactive) | 17.1 µM (inactive) | > 100 µM (inactive) | 9.71 µM (inactive) | > 100 µM (inactive) | > 100 µM (inactive) | 53 µM (inactive)
O=C1c2ccccc2CC1C1(O)C(=O)Nc2ccccc21 (configuration not stated) | > 100 µM (inactive) | > 100 µM (inactive) | > 100 µM (inactive) | > 100 µM (inactive) | > 100 µM | > 100 µM (inactive) | > 100 µM (inactive) | > 100 µM (inactive) | > 100 µM (inactive) | > 100 µM (inactive) | > 100 µM (inactive) | > 100 µM (inactive) | > 100 µM (inactive) | > 100 µM (inactive) | > 100 µM (inactive) | > 100 µM (inactive) |  |  |  | 
CC(C)(C)[C@H]1CC[C@@](O)(c2ccccc2)CC1.CC(C)(C)[C@H]1CC[C@](O)(c2ccccc2)CC1 | 18 µM (inactive) | 19.5 µM (inactive) | 25.4 µM (inactive) | 22.2 µM (inactive) | 23.9 µM | 26.7 µM (inactive) | 25.9 µM (inactive) | 15.2 µM (inactive) | 11.6 µM (inactive) | 27 µM (inactive) | 17.2 µM (inactive) | 44.7 µM (inactive) | 22.5 µM (inactive) | 14.7 µM (inactive) | 25.2 µM (inactive) | 22.2 µM (inactive) |  |  |  | 
O=C1/C(=C/c2ccccc2)CNC/C1=C\c1ccccc1 | 1.57 µM (inactive) | 1.97 µM (inactive) | 0.329 µM (active) | 0.184 µM (active) | 0.612 µM | 2.84 µM (inactive) | 1.87 µM (inactive) | 0.52 µM (active) | 2.42 µM (inactive) | 1.36 µM (inactive) | 1.42 µM (inactive) | 2.44 µM (inactive) | 1.92 µM (inactive) | 3.21 µM (inactive) | 3.28 µM (inactive) | 5.51 µM (inactive) |  |  |  | 
